Two molecules from paper PMC9442787, “A Modified Yeast Two-Hybrid Platform Enables Dynamic Control of Expression Intensities to Unmask Properties of Protein–Protein Interactions” (ACS Synthetic Biology, 2022) can be followed below.

Molecules are shown by their SMILES.

Assay [1] concerns the target PYL7 (Arabidopsis thaliana, UniProt Q1ECF1). The settings on record: interaction with PP2C (HAB1 or ABI1 not told); low inducer concentrations; 30 °C.
The target in assay [2] is T1, SiGID1b1 (Solanum lycopersicum, UniProt A0A3Q7J108).
T1 construct: gene GID1b-1; receptor fused to GAL4 BD (pBD-pZ-FLAG), PROCERA fused to GAL4 AD (pACT-Lex), in yeast Y190; with DELLA protein GAI (PROCERA)
T1 sequence (A0A3Q7J108 1-345): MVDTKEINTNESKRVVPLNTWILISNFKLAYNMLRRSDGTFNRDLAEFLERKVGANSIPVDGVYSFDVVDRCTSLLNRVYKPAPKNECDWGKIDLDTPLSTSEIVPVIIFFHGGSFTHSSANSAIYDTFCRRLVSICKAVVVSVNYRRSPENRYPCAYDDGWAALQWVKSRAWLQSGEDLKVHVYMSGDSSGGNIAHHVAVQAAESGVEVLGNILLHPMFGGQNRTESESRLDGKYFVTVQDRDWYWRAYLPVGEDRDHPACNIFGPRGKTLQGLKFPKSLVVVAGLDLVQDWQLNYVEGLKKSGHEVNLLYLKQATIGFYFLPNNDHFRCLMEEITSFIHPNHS
T1 sequence (Q7Y1B6 1-588 partner): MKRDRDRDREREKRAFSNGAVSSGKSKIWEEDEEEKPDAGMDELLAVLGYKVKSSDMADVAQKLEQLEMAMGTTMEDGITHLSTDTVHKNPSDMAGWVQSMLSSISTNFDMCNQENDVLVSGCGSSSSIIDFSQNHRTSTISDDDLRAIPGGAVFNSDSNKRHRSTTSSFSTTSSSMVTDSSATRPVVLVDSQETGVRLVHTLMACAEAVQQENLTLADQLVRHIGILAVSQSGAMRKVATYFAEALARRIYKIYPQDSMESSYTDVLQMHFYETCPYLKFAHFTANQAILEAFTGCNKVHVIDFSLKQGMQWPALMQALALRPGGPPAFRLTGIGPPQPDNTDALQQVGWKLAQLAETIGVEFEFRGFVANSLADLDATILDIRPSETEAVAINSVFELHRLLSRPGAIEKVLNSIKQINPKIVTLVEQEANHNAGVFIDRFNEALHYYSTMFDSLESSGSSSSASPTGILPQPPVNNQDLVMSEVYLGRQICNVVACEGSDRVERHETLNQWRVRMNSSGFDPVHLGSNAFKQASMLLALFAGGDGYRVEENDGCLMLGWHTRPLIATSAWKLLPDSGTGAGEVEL
Briefly: adjustable yeast two-hybrid, mScarlet-I fluorescence. The settings on record: interaction with PROCERA; estradiol/progesterone-titrated expression; 30 °C. The format is cell-based.

Chain of PYL7 (Q1ECF1 whole entry): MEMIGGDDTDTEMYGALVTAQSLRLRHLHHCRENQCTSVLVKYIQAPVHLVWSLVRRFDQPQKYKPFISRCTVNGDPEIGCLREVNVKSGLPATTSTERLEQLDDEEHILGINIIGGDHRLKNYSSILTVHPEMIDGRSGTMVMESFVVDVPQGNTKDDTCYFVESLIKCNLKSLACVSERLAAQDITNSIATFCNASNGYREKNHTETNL
Chain of PYL7 (Q9CAJ0 whole entry partner): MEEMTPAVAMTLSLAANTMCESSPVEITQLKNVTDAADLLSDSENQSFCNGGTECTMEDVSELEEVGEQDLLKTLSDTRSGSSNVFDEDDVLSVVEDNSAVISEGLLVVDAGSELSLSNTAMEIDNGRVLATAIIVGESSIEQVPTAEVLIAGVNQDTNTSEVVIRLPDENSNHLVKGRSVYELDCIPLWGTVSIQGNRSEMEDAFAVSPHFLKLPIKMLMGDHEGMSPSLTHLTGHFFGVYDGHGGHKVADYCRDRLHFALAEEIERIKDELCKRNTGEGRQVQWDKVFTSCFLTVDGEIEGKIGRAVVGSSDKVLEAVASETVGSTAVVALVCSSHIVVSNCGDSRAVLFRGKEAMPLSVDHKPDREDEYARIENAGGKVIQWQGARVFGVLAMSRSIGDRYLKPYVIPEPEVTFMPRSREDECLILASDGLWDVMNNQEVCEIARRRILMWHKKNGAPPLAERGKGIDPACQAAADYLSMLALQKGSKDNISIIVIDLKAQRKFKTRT

Regarding `CC1=CC(=O)CC(C)(C)[C@@]1(O)/C=C/C(C)=C\C(=O)O` [abscisic acid], in assay [1], the “maximal ratio of signal with ABA to mock” value was 4.9. As for `C=C1C[C@]23C[C@@]1(O)CC[C@H]2[C@@]12C=C[C@H](O)[C@@](C)(C(=O)O1)[C@H]2[C@@H]3C(=O)O` [GA3], the “adjustable yeast two-hybrid, mScarlet-I fluorescence” value in assay [2] is listed as “SiGID1b1 displayed full dependency on GA presence for interaction with SiPROCERA”.
